Tests used:
[1] = test system: Diabrotica balteata; assay: Diabrotica balteata spray test; type: in vivo; details: topical, 168 h, 100 g/ha (=32 μg/cavity), after 7 days, sprayed germinated wheat grains, beetle larvae, read-out: efficacy in %
Experimental: Diabrotica balteata—Spray Test
(§1) • Solvent: 78 parts by weight of acetone • 1.5 parts by weight of dimethylformamide • Emulsifier: alkylaryl polyglycol ether
(§2) To produce a suitable active compound formulation, 1 part by weight of active compound is dissolved using the stated parts by weight of solvent and made up with water containing an emulsifier concentration of 1000 ppm until the desired concentration is attained. To produce further test concentrations, the formulation is diluted with emulsifier-containing water.
Pre-swollen wheat grains (Triticum aestivum) are incubated in a multiwell plate filled with agar and a little water for one day (5 seed grains per cavity). The germinated wheat grains are sprayed with an active compound formulation of the desired concentration. Subsequently, each cavity is infected with 10−20 beetle larvae of Diabrotica balteata.
After 7 days, the efficacy in % is determined. 100% means that all wheat plants have grown as in the untreated, uninfected control; 0% means that no wheat plant has grown.

[2] = test system: green peach aphid (Myzus persicae); assay: Myzus persicae spray test; type: in vivo; details: foliar, 120 h, after 5 days, Chinese cabbage leaf disks, read-out: efficacy in %
Experimental: Myzus Persicae—Spray Test
as §1, §2
Disks of Chinese cabbage leaves (Brassica pekinensis) infested by all stages of the green peach aphid (Myzus persicae) are sprayed with an active compound formulation of the desired concentration.
After 5 days, the efficacy in % is determined. 100% means that all the aphids have been killed; 0% means that no aphids have been killed.

[3] = test system: green peach aphids (Myzus persicae); assay: Myzus persicae oral test; type: in vivo; details: 120 h, after 5 days, read-out: efficacy in %
Experimental: Myzus Persicae—Oral Test • Solvent: 100 parts by weight of acetone To produce a suitable active compound formulation, 1 part by weight of active compound is dissolved using the specified parts by weight of solvent and made up with water until the desired concentration is attained. 50 μl of the active compound preparation are transferred into microtitre plates and made up to a final volume of 200 μl with 150 μl of IPL41 insect medium (33%+15% sugar). Subsequently, the plates are sealed with parafilm, which a mixed population of green peach aphids (Myzus persicae) within a second microtitre plate is able to puncture and imbibe the solution through. After 5 days, the efficacy in % is determined. 100% means that all the aphids have been killed; 0% means that no aphids have been killed.

[4] = test system: fall armyworm (Spodoptera frugiperda); assay: Spodoptera frugiperda spray test; type: in vivo; details: foliar, 168 h, after 7 days, corn leaf disks, caterpillars, read-out: efficacy in %
Experimental: Spodoptera Fruaiperda—Spray Test
(§3) • Solvent: 78.0 parts by weight of acetone • 1.5 parts by weight of dimethylformamide • Emulsifier: alkylaryl polyglycol ether
as §2
Leaf disks of corn (Zea mays) are sprayed with an active compound formulation of the desired concentration and, after drying, populated with caterpillars of the fall armyworm (Spodoptera frugiperda).
After 7 days, the efficacy in % is determined. 100% means that all the caterpillars have been killed; 0% means that no caterpillar has been killed.

[5] = log P by HPLC on reversed-phase column (C18), neutral range; type: physicochemical; details: ammonium carbonate in water / acetonitrile
Experimental: The log P values were determined according to EEC Directive 79/831 Annex V.A8 by HPLC (high-performance liquid chromatography) on a reversed-phase column (C18) using the following methods: ^[b] The log P value is determined by LC-UV measurement in the neutral range using 79 mg/l ammonium carbonate in water and acetonitrile as mobile phases (linear gradient from 10% acetonitrile to 95% acetonitrile). Calibration was carried out using a homologous series of straight-chain alkan-2-ones (having 3 to 16 carbon atoms) with known log P values. The values between successive alkanones are determined by linear regression.

[6] = test system: armyworm (Spodoptera frugiperda); assay: Comparative experiment: Spodoptera frugiperda spray test (SPODFR); type: in vivo; details: 168 h, 7 dat, read-out: % efficacy; for Emax at 0.8 g/ha: 0.8 g of ai/ha; for Emax at 4 g/ha: 4 g of ai/ha; for Emax at 20 g/ha: 20 g of ai/ha
Experimental: Spodoptera Fruaiperda—Spray Test (SPODFR)
as §3, §2
Leaf disks of corn (Zea mays) are sprayed with an active compound formulation of the desired concentration and, after drying, populated with caterpillars of the armyworm (Spodoptera frugiperda).
After the desired period of time, the efficacy in % is determined. 100% means that all the caterpillars have been killed; 0% means that no caterpillar has been killed.

[7] = test system: mustard beetle (Phaedon cochleariae); assay: Comparative experiment: Phaedon cochleariae spray test (PHAECO); type: in vivo; details: 168 h, 7 dat, read-out: % efficacy; for Emax at 4 g/ha: 4 g of ai/ha; for Emax at 20 g/ha: 20 g of ai/ha
Experimental: Phaedon Cochleariae—Spray Test (PHAECO)
as §3, §2
Disks of Chinese cabbage leaves (Brassica pekinensis) are sprayed with an active compound formulation of the desired concentration and, after drying, populated with larvae of the mustard beetle (Phaedon cochleariae).
After the desired period of time, the efficacy in % is determined. 100% means that all the beetle larvae have been killed; 0% means that no beetle larvae have been killed.

[8] = test system: green peach aphid (Myzus persicae); assay: Comparative experiment: Myzus persicae spray test (MYZUPE); type: in vivo; details: 120 h, 5 dat, read-out: % efficacy; for Emax at 4 g/ha: 4 g of ai/ha; for Emax at 20 g/ha: 20 g of ai/ha; for Emax at 100 g/ha: 100 g of ai/ha
Experimental: Myzus Persicae—Spray Test (MYZUPE)
as §3, §2
Disks of Chinese cabbage leaves (Brassica pekinensis) infested by all stages of the green peach aphid (Myzus persicae) are sprayed with an active compound preparation of the desired concentration.
After the desired period of time, the efficacy in % is determined. 100% means that all the aphids have been killed; 0% means that no aphids have been killed.

[9] = test system: greenhouse red spider mite (Tetranychus urticae); assay: Tetranychus urticae spray test, OP-resistant; type: in vivo; details: 100 g/ha, after 6 days, bean leaf disks
Experimental: Tetranychus Urticae—Spray Test, OP-Resistant
as §3, §2
Disks of bean leaves (Phaseolus vulgaris) infested with all stages of the greenhouse red spider mite (Tetranychus urticae) are sprayed with an active compound formulation of the desired concentration.
After 6 days, the efficacy in % is determined. 100% means that all the spider mites have been killed; 0% means that no spider mites have been killed.

[10] = test system: mustard beetle Phaedon cochleariae; assay: Phaedon cochleariae spray test; type: in vivo; details: 100 g/ha; after 7 days; Chinese cabbage leaf disks, larvae
Experimental: Phaedon Cochleariae—Spray Test
as §3, §2
Disks of Chinese cabbage leaves (Brassica pekinensis) are sprayed with an active compound formulation of the desired concentration and, after drying, populated with larvae of the mustard beetle Phaedon cochleariae).
After 7 days, the efficacy in % is determined. 100% means that all the beetle larvae have been killed; 0% means that no beetle larvae have been killed.

Row | SMILES | pest or weed control at 100 g/ha [1] [%] | pest or weed control at 100 g/ha [2] [%] | pest or weed control at 0.8 ppm [3] [%] | pest or weed control at 4 ppm [3] [%] | pest or weed control at 100 g/ha [4] [%] | other results
1 | CCS(=O)(=O)c1c(-c2nc3cc(C(F)(F)C(F)F)cnc3n2C)ncc2cc(C3(C#N)CC3)ccc12 [Example I-14] | 100 | 100 | 100 | 100 | 100 | –
2 | CCSc1c(-c2nc3cc(C(F)(F)F)cnc3n2C)ncc2cc(C3(C#N)CC3)ccc12 [1-[4-Ethylsulfanyl-3-[3-methyl-6-(trifluoromethyl)imidazo[4,5-b]pyridin-2-yl]-7-isoquinolyl]cyclopropanecarbonitrile] | – | – | – | – | – | chromatographic logP [5]: 3.67
3 | CCSc1c(-c2nc3cc(C(F)(F)F)cnc3n2C)ncc2cc(Br)ccc12 [7-Bromo-4-ethylsulfanyl-3-[3-methyl-6-(trifluoromethyl)imidazo[4,5-b]pyridin-2-yl]isoquinoline] | – | – | – | – | – | chromatographic logP [5]: 4.36
4 | CCS(=O)(=O)c1c(-c2nc3cc(C(F)(F)F)cnc3n2C)ncc2ccccc12 [I′-47, reference compound] | – | – | – | – | – | Emax at 0.8 g/ha [6]: 0%; Emax at 4 g/ha [6]: 33%; Emax at 20 g/ha [6]: 67%; Emax at 4 g/ha [7]: 0%; Emax at 20 g/ha [7]: 67%
5 | CCS(=O)(=O)c1c(-c2nc3cc(OC(F)(F)F)ccc3o2)ncc2cc(C3(C#N)CC3)ccc12 [Example I-8] | 100 | – | – | – | 100 | –
6 | CCS(=O)(=O)c1c(-c2nc3cc(C(F)(F)C(F)(F)F)cnc3n2C)ncc2cc(C3(C#N)CC3)ccc12 [Example I-4] | 100 | 100 | 100 | 100 | 100 | –
7 | CCS(=O)(=O)c1c(-c2nc3cc(S(=O)(=O)C(F)(F)F)ccc3o2)ncc2cc(C3(C#N)CC3)ccc12 [Example I-7] | 100 | – | – | – | 100 | –
8 | CCS(=O)(=O)c1c(-c2nc3cc(OC(F)(F)F)ccc3n2C)ncc2cc(C3(C#N)CC3)ccc12 [Example I-12] | 100 | 100 | 90 | 100 | 100 | –
9 | CCS(=O)(=O)c1c(-c2nc3cc(C(F)(F)C(F)(F)F)nnc3n2C)ncc2cc(C3(C#N)CC3)ccc12 [Example I-10] | 100 | 100 | 90 | – | 100 | –
10 | CCS(=O)(=O)c1c(-c2nc3cc(OC(F)(F)C(F)(F)F)cnc3n2C)ncc2cc(C3(C#N)CC3)ccc12 [Example I-5] | – | 90 | – | 100 | 100 | –
11 | CCSc1c(-c2nc3cc(C(F)(F)F)cnc3n2C)ncc2cc(CC#N)ccc12 [2-[4-Ethylsulfanyl-3-[3-methyl-6-(trifluoromethyl)imidazo[4,5-b]pyridin-2-yl]-7-isoquinolyl]acetonitrile] | – | – | – | – | – | chromatographic logP [5]: 3.22
12 | CCS(=O)(=O)c1c(-c2nc3cc(C(F)(F)F)cnc3n2C)ncc2cc(C(F)(F)F)ccc12 [I′-51, reference compound] | – | – | – | – | – | Emax at 4 g/ha [8]: 0%; Emax at 20 g/ha [8]: 0%; Emax at 100 g/ha [8]: 90%
13 | CCS(=O)(=O)c1c(-c2nc3cc(OC(F)(F)F)cnc3n2C)ncc2cc(C3(C#N)CC3)ccc12 [Example I-11] | 100 | 100 | 100 | 100 | 100 | –
14 | CCS(=O)(=O)c1c(-c2nc3cc(C(F)(F)C(F)(F)F)ncc3n2C)ncc2cc(C3(C#N)CC3)ccc12 [Example I-13] | 100 | 100 | 100 | 100 | 100 | –
15 | CCS(=O)(=O)c1c(-c2nc3cc(C(F)(F)F)ccc3n2C)ncc2cc(C3(C#N)CC3)ccc12 [Example I-6] | 100 | 90 | – | 100 | 100 | –
16 | CCS(=O)(=O)c1c(-c2nc3cc(C(F)(F)F)nnc3n2C)ncc2cc(C3(C#N)CC3)ccc12 [Example I-9] | 100 | 90 | 90 | – | 100 | efficacy in % [9]: 90%
17 | CCS(=O)(=O)c1c(-c2nc3cc(C(F)(F)C(F)(F)F)ccc3o2)ncc2cc(C3(C#N)CC3)ccc12 [Example I-3] | 100 | – | – | – | 100 | –
18 | CCS(=O)(=O)c1c(-c2nc3cc(C(F)(F)F)ncc3n2C)ncc2cc(C3(C#N)CC3)ccc12 [Example I-2] | 100 | 90 | 90 | 100 | 100 | –
19 | CCS(=O)(=O)c1c(-c2nc3cc(C(F)(F)F)cnc3n2C)ncc2cc(C3(C#N)CC3)ccc12 [Example I-1, 1-[4-Ethylsulfonyl-3-[3-methyl-6-(trifluoromethy)imidazo[4,5-b]pyridin-2-yl]-7-isoquinolyl]cyclopropanecarbonitrile] | – | 90 | 90 | 100 | 100 | chromatographic logP [5]: 3.02; efficacy in % [10]: 100%; Emax at 0.8 g/ha [6]: 83%; Emax at 4 g/ha [6]: 100%; Emax at 20 g/ha [6]: 100%; Emax at 4 g/ha [8]: 70%; Emax at 20 g/ha [8]: 90%; Emax at 100 g/ha [8]: 90%; Emax at 4 g/ha [7]: 100%; Emax at 20 g/ha [7]: 100%

From patent US12297196B2, “Condensed bicyclic heterocyclic derivatives as pest control agents” (Bayer Aktiengesellschaft, priority 2019, dated 2025)
